According to ChEMBL document CHEMBL3046082, “Control of Rice Blast Disease by Submerged Treatment with SSF-126” (J Pestic Sci, 1997):

Columns and labels:
Pyricularia oryzae [1] = test: Antifungal activity against Magnaporthe oryzae in fourth-leaf stage of rice plant assessed as appressorial formation at 18 g/a after 24 hr (reference value: 90.4 +/- 5.6%); assay type: functional
Pyricularia oryzae [2] = test: Antifungal activity against Magnaporthe oryzae in fourth-leaf stage of rice plant assessed as appressorial formation at 9 g/a after 24 hr (reference value: 90.4 +/- 5.6%); assay type: functional
Pyricularia oryzae [3] = test: Antifungal activity against Magnaporthe oryzae in fourth-leaf stage of rice plant assessed as spore germination at 36 g/a after 24 hr (reference value: 97.2 +/- 2.7%); assay type: functional
Pyricularia oryzae [4] = test: Antifungal activity against Magnaporthe oryzae in fourth-leaf stage of rice plant assessed as appressorial formation at 36 g/a after 24 hr (reference value: 90.4 +/- 5.6%); assay type: functional
Pyricularia oryzae [5] = test: Antifungal activity against Magnaporthe oryzae in fourth-leaf stage of rice plant assessed as spore germination at 9 g/a after 24 hr (reference value: 97.2 +/- 2.7%); assay type: functional
Leaf [6] = test: Drug level in Oryza sativa (rice) plant leaf at 18 g/a up to 42 days; assay type: ADME; details: 1008 h
Root = test: Drug level in Oryza sativa (rice) plant root at 18 g/a up to 42 days; assay type: ADME; details: 1008 h
Leaf [7] = test: Drug level in Oryza sativa (rice) plant leaf at 18 g/a after 10 days; assay type: ADME; details: 240 h
Pyricularia oryzae [8] = test: Antifungal activity against Magnaporthe oryzae in fourth-leaf stage of rice plant assessed as spore germination at 18 g/a after 24 hr (reference value: 97.2 +/- 2.7%); assay type: functional

CNC(=O)/C(=N\OC)c1ccccc1Oc1ccccc1
Activity (Pyricularia oryzae [1]): 91.2% | Activity (Pyricularia oryzae [2]): 92.2% | Activity (Pyricularia oryzae [3]): 96.4% | Activity (Pyricularia oryzae [4]): 91.9% | Activity (Pyricularia oryzae [5]): 97.1% | Drug uptake (Leaf [6]): < 2 ppm | Drug uptake (Root): < 2 ppm | Drug uptake (Leaf [7]): 20 ppm | Activity (Pyricularia oryzae [8]): 96.5%
